Assay results as given in ChEMBL document CHEMBL1201862, “PubChem BioAssay data set” (2004).
Activity calls are given as the source filed them.

Legend:
[1] = biological target: T1, Ubiquitin-conjugating enzyme E2 N (Homo sapiens, UniProt P61088); assay type: functional
T1 sequence (P61088 whole entry): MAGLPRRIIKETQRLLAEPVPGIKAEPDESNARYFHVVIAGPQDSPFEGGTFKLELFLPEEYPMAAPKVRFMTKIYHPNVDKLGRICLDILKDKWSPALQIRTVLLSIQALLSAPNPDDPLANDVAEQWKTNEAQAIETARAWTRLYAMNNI

[2] = biological target: T1, Ubiquitin-conjugating enzyme E2 N; assay type: functional; remark: listed apart in the source
[3] = biological target: T2, Bcl-2-related protein A1 (Mus musculus, UniProt Q07440); assay type: functional;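 further: confirmatory dose–response counterscreen on Bfl-1, used to check hits from a UBC13 polyubiquitin inhibitor campaign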
T2 sequence (Q07440 whole entry): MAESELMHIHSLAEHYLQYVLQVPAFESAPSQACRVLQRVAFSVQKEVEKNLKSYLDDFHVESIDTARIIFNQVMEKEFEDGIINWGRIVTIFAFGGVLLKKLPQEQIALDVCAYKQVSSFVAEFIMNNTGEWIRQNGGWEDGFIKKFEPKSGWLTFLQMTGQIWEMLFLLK

[4] = biological target: T3, Eukaryotic translation initiation factor 2-alpha kinase 3 (Homo sapiens, UniProt Q9NZJ5); assay: Dose response cell-based high-throughput screening assay to measure PERK inhibition. [Related pubchem assays: 1416 ]; assay type: functional
T3 sequence (Q9NZJ5 whole entry): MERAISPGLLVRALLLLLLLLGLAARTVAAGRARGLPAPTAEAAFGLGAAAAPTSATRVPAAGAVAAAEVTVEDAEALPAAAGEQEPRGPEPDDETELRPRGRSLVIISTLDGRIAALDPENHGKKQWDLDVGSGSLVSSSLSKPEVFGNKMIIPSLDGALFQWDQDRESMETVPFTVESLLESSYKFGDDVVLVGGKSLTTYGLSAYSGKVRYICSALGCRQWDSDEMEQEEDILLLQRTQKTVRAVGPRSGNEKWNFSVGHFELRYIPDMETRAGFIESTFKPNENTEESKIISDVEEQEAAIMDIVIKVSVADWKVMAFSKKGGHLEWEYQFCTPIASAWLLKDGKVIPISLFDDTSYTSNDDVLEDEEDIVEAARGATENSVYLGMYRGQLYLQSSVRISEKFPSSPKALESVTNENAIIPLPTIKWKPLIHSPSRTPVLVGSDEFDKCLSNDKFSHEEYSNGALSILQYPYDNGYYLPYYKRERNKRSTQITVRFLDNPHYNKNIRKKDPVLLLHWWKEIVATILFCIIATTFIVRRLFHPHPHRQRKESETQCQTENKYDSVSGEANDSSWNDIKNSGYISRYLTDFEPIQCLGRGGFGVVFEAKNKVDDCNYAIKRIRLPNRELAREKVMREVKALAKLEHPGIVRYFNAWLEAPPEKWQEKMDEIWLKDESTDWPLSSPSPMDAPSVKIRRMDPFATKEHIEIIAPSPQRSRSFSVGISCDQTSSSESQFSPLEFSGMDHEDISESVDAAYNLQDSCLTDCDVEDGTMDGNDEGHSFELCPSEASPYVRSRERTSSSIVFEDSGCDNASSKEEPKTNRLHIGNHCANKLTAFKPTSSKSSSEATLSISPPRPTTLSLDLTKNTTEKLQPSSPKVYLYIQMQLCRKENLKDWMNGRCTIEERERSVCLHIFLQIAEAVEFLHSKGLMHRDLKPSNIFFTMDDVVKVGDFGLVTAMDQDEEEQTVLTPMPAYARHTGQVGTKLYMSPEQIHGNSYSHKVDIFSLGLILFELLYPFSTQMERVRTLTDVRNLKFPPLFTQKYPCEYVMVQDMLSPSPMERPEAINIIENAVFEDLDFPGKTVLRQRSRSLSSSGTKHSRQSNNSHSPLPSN

[5] = biological target: T3, Eukaryotic translation initiation factor 2-alpha kinase 3; assay: Counterscreen assay for PERK inhibitors: Dose response cell-based high throughput screening assay to measure inhibition of PERK at 6 hours. [Related pubchem assays: 1522, 1416 ]; assay type: functional
[6] = biological target: T4, Acyl-homoserine lactone acylase PvdQ (Pseudomonas aeruginosa (strain LESB58), UniProt Q9I194); assay: PvdQ acylase enzyme activity blockers – biochemical, fluorescence, plate reader and imaging, cherry-picks, dose response (AID 493231)
T4 sequence (Q9I194 whole entry): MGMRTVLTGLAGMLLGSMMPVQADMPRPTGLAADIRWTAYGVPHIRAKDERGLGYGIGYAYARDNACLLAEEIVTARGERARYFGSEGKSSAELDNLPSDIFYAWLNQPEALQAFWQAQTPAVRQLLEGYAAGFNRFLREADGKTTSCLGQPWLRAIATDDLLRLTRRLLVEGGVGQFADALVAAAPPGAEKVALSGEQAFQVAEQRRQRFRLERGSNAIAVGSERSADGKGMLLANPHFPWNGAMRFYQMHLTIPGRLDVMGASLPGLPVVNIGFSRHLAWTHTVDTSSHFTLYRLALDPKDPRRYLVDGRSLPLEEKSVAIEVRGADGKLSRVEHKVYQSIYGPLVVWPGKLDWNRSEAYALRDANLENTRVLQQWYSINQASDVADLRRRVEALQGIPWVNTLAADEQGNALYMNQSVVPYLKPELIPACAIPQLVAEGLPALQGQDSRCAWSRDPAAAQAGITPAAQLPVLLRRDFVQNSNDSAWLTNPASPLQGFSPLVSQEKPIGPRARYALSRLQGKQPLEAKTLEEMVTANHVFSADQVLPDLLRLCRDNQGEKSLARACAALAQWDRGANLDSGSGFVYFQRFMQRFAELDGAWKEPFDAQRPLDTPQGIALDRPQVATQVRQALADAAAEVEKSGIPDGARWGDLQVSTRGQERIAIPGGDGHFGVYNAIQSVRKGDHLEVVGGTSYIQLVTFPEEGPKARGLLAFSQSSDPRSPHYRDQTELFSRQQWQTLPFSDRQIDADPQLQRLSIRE

[7] = biological target: Induced myeloid leukemia cell differentiation protein Mcl-1 (Homo sapiens, UniProt Q07820); assay type: functional
Induced myeloid leukemia cell differentiation protein Mcl-1, sequence (Q07820 whole entry): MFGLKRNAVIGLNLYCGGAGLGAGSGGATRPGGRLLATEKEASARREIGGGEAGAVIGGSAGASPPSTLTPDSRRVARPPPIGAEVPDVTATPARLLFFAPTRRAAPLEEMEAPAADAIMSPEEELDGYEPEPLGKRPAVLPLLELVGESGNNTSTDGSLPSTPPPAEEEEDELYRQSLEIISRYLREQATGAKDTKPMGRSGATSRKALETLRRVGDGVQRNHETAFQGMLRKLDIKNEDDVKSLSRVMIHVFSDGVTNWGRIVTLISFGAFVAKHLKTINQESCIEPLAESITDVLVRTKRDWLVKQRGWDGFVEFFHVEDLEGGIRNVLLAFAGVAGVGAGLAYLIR

[8] = biological target: T5, Voltage-gated N-type calcium channel alpha-1B subunit/Amyloid beta A4 precursor protein-binding family A member 1 (Homo sapiens, UniProt Q00975+Q02410); assay type: protein assay
T5 sequence (Q00975 whole entry, the tested form may be a part): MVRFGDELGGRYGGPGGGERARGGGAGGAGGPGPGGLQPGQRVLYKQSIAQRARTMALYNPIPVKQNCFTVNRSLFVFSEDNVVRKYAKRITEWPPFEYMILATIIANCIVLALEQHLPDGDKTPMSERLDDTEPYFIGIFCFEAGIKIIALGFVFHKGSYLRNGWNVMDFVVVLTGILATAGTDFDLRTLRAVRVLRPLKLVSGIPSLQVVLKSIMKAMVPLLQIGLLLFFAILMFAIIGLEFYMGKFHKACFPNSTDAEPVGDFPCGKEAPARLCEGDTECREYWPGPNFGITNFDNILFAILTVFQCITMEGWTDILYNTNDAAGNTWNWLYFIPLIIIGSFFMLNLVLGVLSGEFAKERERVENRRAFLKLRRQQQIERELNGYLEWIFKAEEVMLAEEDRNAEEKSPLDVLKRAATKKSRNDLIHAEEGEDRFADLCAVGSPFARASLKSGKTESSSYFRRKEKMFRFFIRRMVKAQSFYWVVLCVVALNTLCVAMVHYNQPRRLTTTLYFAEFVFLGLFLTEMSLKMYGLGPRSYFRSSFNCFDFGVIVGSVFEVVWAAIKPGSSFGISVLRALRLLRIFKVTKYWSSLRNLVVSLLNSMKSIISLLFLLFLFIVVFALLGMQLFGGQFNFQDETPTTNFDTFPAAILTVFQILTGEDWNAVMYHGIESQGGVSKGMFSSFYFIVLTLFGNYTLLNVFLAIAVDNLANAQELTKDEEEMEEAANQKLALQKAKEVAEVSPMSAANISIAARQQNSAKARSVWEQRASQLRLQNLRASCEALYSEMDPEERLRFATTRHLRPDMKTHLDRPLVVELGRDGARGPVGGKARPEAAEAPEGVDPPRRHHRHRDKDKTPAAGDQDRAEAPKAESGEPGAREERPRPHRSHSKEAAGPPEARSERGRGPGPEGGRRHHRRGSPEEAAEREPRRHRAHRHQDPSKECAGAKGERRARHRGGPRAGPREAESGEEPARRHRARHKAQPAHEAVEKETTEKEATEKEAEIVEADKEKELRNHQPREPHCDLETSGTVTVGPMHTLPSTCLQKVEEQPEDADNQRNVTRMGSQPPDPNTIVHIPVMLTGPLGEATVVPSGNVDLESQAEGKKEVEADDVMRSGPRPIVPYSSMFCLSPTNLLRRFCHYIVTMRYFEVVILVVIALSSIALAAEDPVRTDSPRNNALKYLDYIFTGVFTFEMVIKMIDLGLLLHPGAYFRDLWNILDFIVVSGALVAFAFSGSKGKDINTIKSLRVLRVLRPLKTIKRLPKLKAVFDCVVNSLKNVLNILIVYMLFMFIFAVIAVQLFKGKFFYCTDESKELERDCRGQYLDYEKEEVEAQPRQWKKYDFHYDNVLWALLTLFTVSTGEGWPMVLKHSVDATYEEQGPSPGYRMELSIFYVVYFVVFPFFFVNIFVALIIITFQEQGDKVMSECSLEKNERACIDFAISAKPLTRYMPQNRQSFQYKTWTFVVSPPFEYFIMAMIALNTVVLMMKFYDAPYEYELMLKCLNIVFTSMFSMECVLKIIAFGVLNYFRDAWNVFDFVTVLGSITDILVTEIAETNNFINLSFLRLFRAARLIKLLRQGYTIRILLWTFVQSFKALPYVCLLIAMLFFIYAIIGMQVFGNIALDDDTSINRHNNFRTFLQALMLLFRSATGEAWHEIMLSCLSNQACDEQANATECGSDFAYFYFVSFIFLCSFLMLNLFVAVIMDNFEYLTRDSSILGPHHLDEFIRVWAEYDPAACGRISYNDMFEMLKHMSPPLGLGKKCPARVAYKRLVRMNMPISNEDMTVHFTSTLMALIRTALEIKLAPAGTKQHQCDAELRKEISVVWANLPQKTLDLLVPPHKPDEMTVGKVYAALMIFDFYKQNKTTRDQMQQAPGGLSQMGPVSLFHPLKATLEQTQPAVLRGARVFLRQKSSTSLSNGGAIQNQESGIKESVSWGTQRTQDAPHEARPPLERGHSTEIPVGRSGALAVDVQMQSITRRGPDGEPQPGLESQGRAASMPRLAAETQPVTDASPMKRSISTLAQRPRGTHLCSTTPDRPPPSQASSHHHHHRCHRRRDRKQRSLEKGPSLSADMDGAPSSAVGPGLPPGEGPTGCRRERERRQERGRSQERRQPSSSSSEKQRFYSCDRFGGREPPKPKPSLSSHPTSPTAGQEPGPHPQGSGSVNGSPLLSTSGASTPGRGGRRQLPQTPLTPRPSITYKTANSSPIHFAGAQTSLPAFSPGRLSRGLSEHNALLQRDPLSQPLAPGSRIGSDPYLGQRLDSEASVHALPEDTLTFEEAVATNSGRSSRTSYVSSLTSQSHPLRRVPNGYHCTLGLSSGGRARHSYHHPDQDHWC
T5 sequence (Q02410 whole entry, the tested form may be a part): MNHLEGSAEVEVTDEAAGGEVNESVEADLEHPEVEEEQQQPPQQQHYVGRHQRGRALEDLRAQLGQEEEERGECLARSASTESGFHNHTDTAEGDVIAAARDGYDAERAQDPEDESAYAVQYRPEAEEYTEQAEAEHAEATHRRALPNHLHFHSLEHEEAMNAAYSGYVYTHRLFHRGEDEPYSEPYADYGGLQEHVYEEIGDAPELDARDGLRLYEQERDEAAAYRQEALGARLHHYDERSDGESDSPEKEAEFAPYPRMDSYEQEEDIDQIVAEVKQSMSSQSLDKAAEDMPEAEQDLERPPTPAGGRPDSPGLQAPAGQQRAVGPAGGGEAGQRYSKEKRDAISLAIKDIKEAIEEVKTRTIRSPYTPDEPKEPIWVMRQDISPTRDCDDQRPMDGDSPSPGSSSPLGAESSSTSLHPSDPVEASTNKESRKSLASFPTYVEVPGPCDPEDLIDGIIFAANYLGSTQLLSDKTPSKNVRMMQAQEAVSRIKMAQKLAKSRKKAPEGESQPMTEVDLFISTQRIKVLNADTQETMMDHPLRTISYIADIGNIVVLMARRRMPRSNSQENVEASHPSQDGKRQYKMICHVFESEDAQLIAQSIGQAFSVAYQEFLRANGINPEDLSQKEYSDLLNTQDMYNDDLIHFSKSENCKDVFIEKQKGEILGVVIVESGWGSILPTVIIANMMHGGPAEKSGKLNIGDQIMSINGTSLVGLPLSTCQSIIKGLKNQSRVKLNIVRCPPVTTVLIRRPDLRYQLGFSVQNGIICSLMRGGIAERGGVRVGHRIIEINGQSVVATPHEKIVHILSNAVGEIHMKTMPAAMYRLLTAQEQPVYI

[9] = biological target: T6, Carboxy-terminal domain RNA polymerase II polypeptide A small phosphatase 1 (Homo sapiens, UniProt Q9GZU7); assay: CTDSP1 inhibitors, concentration-response, biochemical, absorbance readout, ultra-high-throughput screen actives (AID 540297); assay type: functional
T6 sequence (Q9GZU7 whole entry): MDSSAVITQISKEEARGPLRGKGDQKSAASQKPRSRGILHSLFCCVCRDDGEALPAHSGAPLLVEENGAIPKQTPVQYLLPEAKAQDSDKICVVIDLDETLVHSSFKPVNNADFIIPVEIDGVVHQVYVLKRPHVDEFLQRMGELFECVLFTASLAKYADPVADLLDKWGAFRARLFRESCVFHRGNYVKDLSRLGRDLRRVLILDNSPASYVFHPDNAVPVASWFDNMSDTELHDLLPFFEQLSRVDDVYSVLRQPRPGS

[10] = biological target: Eukaryotic translation initiation factor 4E (Mus musculus, UniProt P63073); assay: blockers of eIF4G binding by eIF4E – biochemical, TR-FRET, dose response (AID 855); assay type: functional;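 further: potency for disrupting eIF4E binding to eIF4GI seen as loss of FRET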
Eukaryotic translation initiation factor 4E, sequence (P63073 whole entry): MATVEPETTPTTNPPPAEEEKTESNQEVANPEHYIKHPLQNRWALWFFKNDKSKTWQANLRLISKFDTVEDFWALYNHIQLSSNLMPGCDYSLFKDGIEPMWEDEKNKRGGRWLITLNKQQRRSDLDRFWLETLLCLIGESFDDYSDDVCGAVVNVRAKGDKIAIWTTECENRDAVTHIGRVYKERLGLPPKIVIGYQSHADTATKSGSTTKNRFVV

[11] = biological target: T5, Voltage-gated N-type calcium channel alpha-1B subunit/Amyloid beta A4 precursor protein-binding family A member 1; assay type: protein assay; remark: listed apart in the source
[12] = biological target: T7, Protein RecA (Mycobacterium tuberculosis, UniProt P9WHJ3); assay: Fluorescence Cell-Free Homogeneous Dose Retest to Identify Inhibitors of RecA-Intein Splicing Activity. [Related pubchem assays (depositor defined):AID2097, AID2223, AID489010, AID492950]; assay type: functional
T7 sequence (P9WHJ3 whole entry): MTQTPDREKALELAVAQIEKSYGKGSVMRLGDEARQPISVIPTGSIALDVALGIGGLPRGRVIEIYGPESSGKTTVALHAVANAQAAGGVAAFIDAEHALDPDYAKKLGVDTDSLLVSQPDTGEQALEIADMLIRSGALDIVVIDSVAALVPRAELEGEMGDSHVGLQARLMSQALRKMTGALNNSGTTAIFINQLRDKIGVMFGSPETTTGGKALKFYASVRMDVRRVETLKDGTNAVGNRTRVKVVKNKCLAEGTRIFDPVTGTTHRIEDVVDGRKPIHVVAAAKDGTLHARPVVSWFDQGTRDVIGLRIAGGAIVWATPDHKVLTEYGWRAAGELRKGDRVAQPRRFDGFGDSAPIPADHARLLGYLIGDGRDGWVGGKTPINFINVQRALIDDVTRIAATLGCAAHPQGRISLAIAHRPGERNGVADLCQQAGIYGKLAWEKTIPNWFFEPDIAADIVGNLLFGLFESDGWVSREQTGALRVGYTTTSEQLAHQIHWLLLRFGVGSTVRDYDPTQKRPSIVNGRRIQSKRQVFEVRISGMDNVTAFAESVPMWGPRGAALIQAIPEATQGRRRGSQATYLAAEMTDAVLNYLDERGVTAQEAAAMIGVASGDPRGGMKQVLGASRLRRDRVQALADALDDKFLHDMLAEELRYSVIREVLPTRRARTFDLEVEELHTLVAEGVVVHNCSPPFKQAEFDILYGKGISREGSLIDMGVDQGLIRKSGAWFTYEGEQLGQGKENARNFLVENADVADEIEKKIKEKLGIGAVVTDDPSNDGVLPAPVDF

[13] = biological target: Genome polyprotein (dengue virus type 2, UniProt P29990); assay: flavivirus cap methylation enzyme inhibition – biochemical, confirmation dose response, primary screen (AID 588689); assay type: functional
Genome polyprotein, sequence (P29990 2492-3391 limits assumed): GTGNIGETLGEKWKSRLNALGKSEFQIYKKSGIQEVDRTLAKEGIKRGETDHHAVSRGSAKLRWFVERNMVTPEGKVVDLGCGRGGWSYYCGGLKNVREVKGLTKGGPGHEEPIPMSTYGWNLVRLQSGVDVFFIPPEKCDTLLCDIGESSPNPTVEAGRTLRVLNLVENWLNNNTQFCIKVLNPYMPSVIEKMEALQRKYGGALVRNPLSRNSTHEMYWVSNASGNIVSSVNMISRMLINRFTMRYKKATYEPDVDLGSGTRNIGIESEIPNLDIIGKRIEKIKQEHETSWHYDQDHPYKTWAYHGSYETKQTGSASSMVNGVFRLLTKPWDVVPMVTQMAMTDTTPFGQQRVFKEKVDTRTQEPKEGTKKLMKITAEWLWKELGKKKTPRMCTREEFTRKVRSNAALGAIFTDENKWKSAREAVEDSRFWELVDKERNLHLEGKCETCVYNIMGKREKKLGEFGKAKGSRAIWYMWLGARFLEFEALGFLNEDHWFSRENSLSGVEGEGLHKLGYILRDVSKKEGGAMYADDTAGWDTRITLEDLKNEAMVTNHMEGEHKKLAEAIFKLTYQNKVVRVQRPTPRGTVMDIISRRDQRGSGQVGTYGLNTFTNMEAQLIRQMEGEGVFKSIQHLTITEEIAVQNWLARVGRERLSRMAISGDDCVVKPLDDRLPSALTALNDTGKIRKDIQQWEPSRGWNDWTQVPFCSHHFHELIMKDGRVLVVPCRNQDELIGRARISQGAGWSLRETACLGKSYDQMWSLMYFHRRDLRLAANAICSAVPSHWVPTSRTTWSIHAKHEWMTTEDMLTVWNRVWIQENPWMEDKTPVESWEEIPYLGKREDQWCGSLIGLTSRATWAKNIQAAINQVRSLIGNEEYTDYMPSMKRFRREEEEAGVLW

[14] = A cytotoxicity screen of small molecule inhibitors of the PhoP region in Salmonella typhi identified in the primary screen. [Related pubchem assays: 1850, 1864, 1985 ]; assay type: functional
[15] = biological target: T8, Replicative DNA helicase DnaB (Mycobacterium tuberculosis, UniProt P9WMR3); assay: DnaB intein splicing inhibitors, dose response, biochemical, cell-free fluorescence (AID 449749); assay type: functional
T8 sequence (P9WMR3 whole entry): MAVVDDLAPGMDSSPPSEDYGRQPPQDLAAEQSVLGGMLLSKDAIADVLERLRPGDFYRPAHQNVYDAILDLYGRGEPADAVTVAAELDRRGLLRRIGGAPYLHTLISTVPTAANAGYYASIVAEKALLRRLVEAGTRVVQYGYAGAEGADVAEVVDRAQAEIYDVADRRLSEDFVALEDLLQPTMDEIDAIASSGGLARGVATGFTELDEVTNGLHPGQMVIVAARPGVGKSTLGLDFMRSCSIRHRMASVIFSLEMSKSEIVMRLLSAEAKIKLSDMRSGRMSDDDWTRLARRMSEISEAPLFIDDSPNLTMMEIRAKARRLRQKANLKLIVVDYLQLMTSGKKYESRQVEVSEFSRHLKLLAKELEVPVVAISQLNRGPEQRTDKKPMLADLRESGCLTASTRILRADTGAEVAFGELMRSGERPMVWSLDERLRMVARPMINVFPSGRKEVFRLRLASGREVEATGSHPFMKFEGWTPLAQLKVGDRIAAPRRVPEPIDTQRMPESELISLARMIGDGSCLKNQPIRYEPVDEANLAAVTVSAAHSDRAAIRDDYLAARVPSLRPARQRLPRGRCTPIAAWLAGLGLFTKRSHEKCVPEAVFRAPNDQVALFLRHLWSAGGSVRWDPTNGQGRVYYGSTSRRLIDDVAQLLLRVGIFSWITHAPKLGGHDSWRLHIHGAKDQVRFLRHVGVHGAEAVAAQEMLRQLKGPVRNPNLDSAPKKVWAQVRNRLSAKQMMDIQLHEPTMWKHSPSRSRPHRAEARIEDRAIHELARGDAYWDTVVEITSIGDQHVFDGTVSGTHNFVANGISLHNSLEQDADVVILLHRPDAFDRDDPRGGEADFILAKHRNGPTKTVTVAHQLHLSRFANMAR

[16] = biological target: Cytochrome P450 2C19 (Homo sapiens, UniProt P33261); assay: Cytochrome panel assay with activity outcomes. Panel member name: p450-cyp2c19 Compounds with AC50 equal or less than 10 uM are considered active; assay type: functional
[17] = biological target: DNA dC->dU-editing enzyme APOBEC-3G (Homo sapiens, UniProt Q9HC16); assay: Dose Response confirmation of small molecule APOBEC3G DNA Deaminase Inhibitors via a fluorescence-based single-stranded DNA deaminase assay. [Related pubchem assays (depositor defined):AID493012, AID493028]; assay type: functional
[18] = biological target: Neurotensin receptor type 1 (Homo sapiens, UniProt P30989); assay type: functional;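 further: Image-based confirmatory dose-response assay measuring agonist activity at NTR1; NTR1-expressing U2OS osteosarcoma cells imaged for beta-arrestin GFP spot formation; agonist potency where compounds increase beta-arrestin recruitment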
Neurotensin receptor type 1, sequence (P30989 whole entry): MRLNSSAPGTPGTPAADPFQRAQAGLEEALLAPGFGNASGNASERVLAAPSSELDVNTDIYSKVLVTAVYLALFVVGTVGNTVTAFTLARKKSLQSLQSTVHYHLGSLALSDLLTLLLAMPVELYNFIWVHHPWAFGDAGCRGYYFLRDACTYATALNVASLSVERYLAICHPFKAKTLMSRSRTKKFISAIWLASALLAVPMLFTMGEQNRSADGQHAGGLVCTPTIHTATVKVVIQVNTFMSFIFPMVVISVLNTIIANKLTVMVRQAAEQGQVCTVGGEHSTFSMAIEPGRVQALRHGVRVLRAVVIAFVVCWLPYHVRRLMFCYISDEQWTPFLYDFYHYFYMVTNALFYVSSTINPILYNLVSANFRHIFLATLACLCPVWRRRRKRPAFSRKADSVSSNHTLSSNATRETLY

## CCOC(=O)c1cc(-c2ccc(OC)cc2)nc2c1c(C)nn2CCC#N
[1]
  IC50: 15 µM (active)
[2]
  IC50: 6.8 µM (active)
[3]
  IC50: > 20 µM (inactive)

## O=C(NC(=S)Nc1ccc2oc(=O)ccc2c1)c1ccccc1F
[4]
  EC50: > 55.7 µM (not active)
[5]
  EC50: > 55.7 µM (not active)

## CC(C)N(C(=O)/C=C/c1cccc([N+](=O)[O-])c1)C(C)C
[4]
  EC50: > 55.7 µM (not active)
[5]
  EC50: > 55.7 µM (not active)

## Cc1cc(NC(=O)c2cc([N+](=O)[O-])cc([N+](=O)[O-])c2C)no1
[6]
  AC50: 3.11 µM (active)

## N#CN(Cc1ccccc1)Cc1ccccc1
[6]
  AC50: 1.6 µM (active)

## CC(=O)c1ccc(NC(=O)CSc2ccsc2[N+](=O)[O-])cc1
[7]
  IC50: < 0.4 µM (not active)
[8]
  IC50: 6 µM (active)
[9]
  IC50: 3.83 µM (active)
[10]
  IC50: 50 µM (inactive)
[11]
  IC50: 48.2 µM (active)

## NC1=NC(=Nc2cccc(S(N)(=O)=O)c2)c2ccccc21
[4]
  EC50: > 55.7 µM (not active)
[5]
  EC50: > 55.7 µM (not active)

## COc1cccc(C(c2c(C)[nH]n(-c3ccccc3)c2=O)c2c(C)[nH]n(-c3ccccc3)c2=O)c1O
[12]
  EC50: 0.829 µM (active)
[13]
  IC50: 38.8 µM (active)
[14]
  EC50: > 50 µM (active)
[15]
  AC50: 1.18 µM (active)
[16]
  AC50: inconclusive

## Sc1nnc(-c2ccco2)n1/N=C/c1ccccn1
[17]
  IC50: 9.12 µM (active)

## COc1cc2c(cc1OC)C(SC)=NC(C)(C)C2
[18]
  EC50: 9.39 µM (active)

## CCOc1ccc(-c2nc(S(=O)(=O)c3ccccc3)c(NC)o2)cc1
[1]
  IC50: 19 µM (active)
[2]
  IC50: > 20 µM (inactive)
[3]
  IC50: > 20 µM (inactive)

## Cc1ccc(S(=O)(=O)NCCC(C)C)cc1[N+](=O)[O-]
[6]
  AC50: 12.5 µM (active)
